Results published in patent publication US20170198011A1, “COMPOSITION FOR TREATING SEPSIS OR SEPTIC SHOCK COMPRISING THE PEPTIDE ORIGINATED FROM THE SMAD6” (Medpacto, Inc., priority 2011, published 2017).
Where no end group is shown, it is not given here. The star is where a group is joined. Palmitoyl = CCCCCCCCCCCCCCCC(=O)*

Legend:
NF-κB = assay: NF-κB-mediated downstream signaling in LPS-stimulated RAW264.7 cells (luciferase, immunoblots); format: cell-based, mouse
Description: FIG. 4B is a graph showing luciferase activity in RAW264.7 cells transfected with a 5×NF-κB-Luc plasmid after treatment with scrambled peptides (Pal-Scram; 100 nM) or Smaducin-6 and then with LPS,

[1] = tested on: IRAK1-, RIP1- or IKKε-mediated signaling complexes; assay: Co-immunoprecipitation of LPS-induced TLR4 downstream signaling complexes in primary peritoneal macrophages; format: cell-based, mice
Description: A co-immunoprecipitation assay was carried out as follows. For use as antibodies in co-immunoprecipitation, mouse anti-HA (F-7), mouse anti-c-Myc (9E10), rabbit anti-IκBα (C-21), mouse anti-IRAK1 (F-4), and mouse anti-TRAF6 (D-10) were purchased from Santa Cruz Biotechnology (USA), the antibodies rabbit anti-Pellino-1 and rabbit anti-IRAK4 from Imgenex, the antibodies rabbit anti-Smad6, rabbit anti-MyD88 (D80F5), rabbit anti-IKKα, rabbit anti-phospho-IKKα/β, rabbit anti-RIP1 (D94C12), rabbit anti-IKKi (anti-IKKE; D61F9), rabbit anti-TBK1 (D1B4), rabbit anti-GRK2 from Cell Signaling, and the antibody anti-β-actin from Sigma. Cells were lysed in a lysis buffer (PBS containing 0.5% Triton X-100, 20 mM HEPES (pH 7.4), 150 mM NaCl, 12.5 mM β-glycerol phosphate, 1.5 mM MgCl2, 10 mM NaF, 2 mM DTT, 1 mM Na3O4V, 2 mM EGTA, 1 mM PMSF and protease inhibitor mixture), and harvested by centrifuging 13,000 rpm for 10 min. For immunoprecipitation, the cell lysate were incubated at 4° C. for 12 hrs with protein-A agarose beads and the above-mentioned antibodies. Afterwards, the beads were washed three times with a lysis buffer, and treated with a 2× sample buffer to separate the co-immunoprecipitates therefrom. The co-immunoprecipitates were boiled, followed by SDS-PAGE.
To examine whether Smaducin-6 interrupts the formation of the downstream signaling complex of TLR4, the cells were pre-treated with Smaducin-6 in the same manner as in Example 1, and analyzed for the LPS-induced formation of the signaling complex using a co-immunoprecipitation method. For control, the same experiment was conducted with scrambled peptides.

inflammatory cytokines = assay: Blood cytokine levels by ELISA in mice with CLP-induced sepsis; format: in vivo; conditions: blood 24 hrs after CLP
Excerpt: FIG. 6A to 6I show levels of cytokines in blood samples from mice subcutaneously injected twice with Smaducin-6 or scrambled peptides at 2 and 14 hrs after CLP induction, as analyzed by ELISA, the blood samples being taken 24 hrs after CLP induction, and
In animal models of CLP-induced sepsis, Smaducin-6 was examined for ability to downregulate inflammatory cytokines. Blood samples were taken from each experimental group, and various cytokines and chemokines related with inflammatory responses were quantitatively measured. To the mice with CLP-induced sepsis, the peptide of the present invention was injected 2 and 14 hrs after CLP, and blood samples were collected 24 hrs after CLP. Levels of cytokines and chemokines in the blood samples were determined by ELISA using various antibodies according to the manufacturer's protocol. The antibodies used in this ELISA included mouse IL-6 (88-7064), IFN-γ (88-7314), TNF-α (88-7346), IL-4 (88-7044), IL-10 (88-7104), TGF-β1 (88-7344), IL-12 p70 (88-7121) and IL-17A (88-7371) ELISA Ready-SET-GO from eBioscience, Mouse IL-1β ELISA Set (559603) from BD Sciences, Mouse CXCL2/MIP-2 Immunoassay (MM200) from R&D Systems, and Mouse IFN-β ELISA Kit from PBL Biomedical Laboratories.

IL-6 = IL-6 immunoblot in spleen and liver of CLP mice; format: in vivo; conditions: immunoblotting
neutrophils = assay: Peritoneal neutrophil migration in LPS septic shock mice; format: in vivo, BALB/c mice; conditions: LPS 60 mg/kg, injected 2 and 14 hrs after, neutrophils isolated at 24 hrs
Excerpt: FIG. 7B is a graph showing neutrophil counts in the peritoneal fluid taken from BALB/c mice with LPS-induced septic shock at 24 hrs after LPS injection,
In mice with CLP-induced sepsis, the bacterial clearance of Smaducin-6 was examined. Smaducin-6 or the scrambled peptides were subcutaneously injected into CLP mice from which peritoneal fluid was then extracted from the mice, and bacteria in the fluid was counted. […] An examination was made to see whether this bacterial clearance of Smaducin-6 was attributed to the intraperitoneal migration of neutrophils. To this end, 2 and 14 hrs after induction of septic shock by injecting 60 mg/kg of LPS, Smaducin-6 or the scrambled peptides were injected into septic shock mice, and 24 hrs after the induction of septic shock, neutrophils were isolated from the peritoneal cavity using Histopaque-1077 (Sigma). Mouse neutrophils were counted using Trypan Blue (Sigma).

CXCR2 = CXCR2 surface expression on human neutrophils by FACS; format: cell-based; conditions: 100 nM for 2 hrs, then LPS 2 hrs
Description: FIG. 7C is a graph showing expression levels of CXCR2 on the surface of human neutrophils treated for 2 hrs with 100 nM scrambled peptides or Smaducin-6 and then for 2 hrs with LPS, as analyzed by FACS, and
To investigate the mechanism in which Smaducin-6 promotes peritoneal neutrophil migration, human neutrophils were treated for 2 hrs with 100 nM scrambled peptides or Smaducin-6 in advance of LPS treatment for 2 hrs. The expression of CXCR2, a chemokine receptor related with neutrophil migration, on the cell surface was analyzed using flow cytometry (FACS). Human neutrophils were isolated from normal human peripheral blood using Histopaque-1077 (Sigma) over a density gradient under the permission of the […] of Ajou University, School of Medicine (Suwon, Korea).

[2] = tested on: TUNEL-positive cells in the spleen; assay: TUNEL assay of spleen of mice with CLP-induced sepsis; format: in vivo; conditions: injected 2 and 14 hrs after CLP, spleen at 24 hrs
Description: An examination was made to see whether Smaducin-6 suppresses apoptosis in mice with CLP-induced sepsis. The scrambled peptides or the Smaducin-6 peptide was injected into mice suffering from CLP-induced sepsis from which the spleen was then excised. Smaducin-6 was assayed for anti-apototic activity using the TUNEL method. The expression level of caspase-3, involved in apoptosis, was also determined using an immunohistochemical assay.

[3] = injected 2 and 14 hrs after CLP

Smaducin-6: palmitic acid conjugated to N-terminus of the 20-amino-acid peptide of Smad6 position 422 to 441, GGRALVVRKVPPGYSIKVFD (SEQ ID NO: 1) (Palmitoyl-GGRALVVRKVPPGYSIKVFD)
NF-κB-mediated luciferase gene expression (NF-κB; 5xNF-κB-Luc): suppress | IKKα/β phosphorylation (NF-κB; immunoblot): suppress | IκBα degradation (NF-κB; immunoblot): suppress | LPS-induced formation of the IKKε-mediated signaling complex [1]: suppressed | LPS-induced formation of the IRAK1-mediated signaling complex [1]: suppressed | LPS-induced formation of the RIP1-mediated signaling complex [1]: suppressed | level of IFN-γ in the blood (inflammatory cytokines; [3]): significantly reduced | level of IL-1β in the blood (inflammatory cytokines; [3]): significantly reduced | level of IL-6 in the blood (inflammatory cytokines; [3]): significantly reduced | level of TNF-α in the blood (inflammatory cytokines; [3]): significantly reduced | level of IL-4 in the blood (inflammatory cytokines; versus scrambled peptide): no statistically significant changes | level of IL-10 in the blood (inflammatory cytokines; versus scrambled peptide): no statistically significant changes | level of IL-12 in the blood (inflammatory cytokines; versus scrambled peptide): no statistically significant changes | level of IL-17A in the blood (inflammatory cytokines; versus scrambled peptide): no statistically significant changes | level of TGF-β1 in the blood (inflammatory cytokines; versus scrambled peptide): no statistically significant changes | IL-6 expression in the spleen and the liver (IL-6): reduce | migration of neutrophils to the peritoneal cavity (neutrophils): increased | expression of CXCR2 on the cell surface (CXCR2): kept the expression of CXCR2 at a normal level | level of TUNEL-positive cells in the spleen [2]: significantly reduced
